From patent publication US6451807B1, “Methods of treating sexual dysfunction in an individual suffering from a retinal disease, class 1 congestive heart failure, or myocardial infarction using a PDE5 inhibitor” (Lilly Icos, LLC., priority 1999, dated 2002)

Legend:
PDE1c = biological target: T1, PDE1c (Homo sapiens, UniProt Q14123); assay: PDE1c enzyme inhibition, IC50 determination; format: biochemical; conditions: read-out: IC50 against PDE1c
T1 construct: made in house; host or cells: Spodoptera frugiperda Sf9 cells
Experimental: Cell pellets (5g) were thawed on ice with 20 ml of Lysis Buffer (50 mM MOPS pH 7.4, 10 μM ZnSO4, 0.1 mM CaCl2, 1 mM DTT, 2 mM benzamidine HCl, 5μg/ml each of pepstatin, leupeptin, and aprotenin). Cells were lysed by passage through a French pressure cell (SLM-Aminco) while temperatures were maintained below 10° C. The resultant cell homogenate was centrifuged at 36,000 rpm at 4° C. for 45 minutes in a Beckman ultracentrifuge using a Type TI45 rotor. The supernatant was discarded and the resultant pellet was resuspended with 40 ml of Solubilization Buffer (Lysis Buffer containing 1M NaCl, 0.1M MgCl2, 1 mM CaCl2, 20 μg/ml calmodulin, and 1% Sulfobetaine SB12 (Z3-12) by sonicating using a VibraCell tuner with a microtip for 3×30 seconds. This was performed in a crushed ice/salt mix for cooling. Following sonication, the mixture was slowly mixed for 30 minutes at 4° C. to finish solubilizing membrane bound proteins. This mixture was centrifuged in a Beckman ultracentrifuge using a type TI45 rotor at 36,000 rpm for 45 minutes. The supernatant was diluted with Lysis Buffer containing 10 μg/ml calpain inhibitor I and II. The precipitated protein was centrifuged for 20 minutes at 9,000 rpm in a Beckman JA-10 rotor. The recovered supernatant then was subjected to Mimetic Blue AP Agarose Chromatography. […]

clinical study subjects = assay: Combined clinical studies, treatment-emergent adverse events; format: in vivo, human
Text: However, it also was observed from the combined clinical studies that the percent of treatment-emergent adverse events increased with an increasing unit dose of the compound of structural formula (I), as illustrated in the following table.

[1] = tested on: patients in need thereof (erectile function); assay: Two randomized, double-blinded placebo controlled studies, daily and on demand dosing (Example 6); format: in vivo, human
Experimental: In two randomized, double-blinded placebo controlled studies, the compound of structural formula (I), at a range of doses in both daily dosing and for on demand therapy for sexual encounters and intercourse in the home setting, was administered to patients in need thereof.
Erectile function was assessed by the International Index of Erectile Function (IIEF) (Rosen et al., Urology, 49, pp. 822-830 (1997)), diaries of sexual attempts, and a global satisfaction question.

[2] = unit dose of about 1 to about 20 mg

T1 sequence (Q14123 whole entry, species assumed): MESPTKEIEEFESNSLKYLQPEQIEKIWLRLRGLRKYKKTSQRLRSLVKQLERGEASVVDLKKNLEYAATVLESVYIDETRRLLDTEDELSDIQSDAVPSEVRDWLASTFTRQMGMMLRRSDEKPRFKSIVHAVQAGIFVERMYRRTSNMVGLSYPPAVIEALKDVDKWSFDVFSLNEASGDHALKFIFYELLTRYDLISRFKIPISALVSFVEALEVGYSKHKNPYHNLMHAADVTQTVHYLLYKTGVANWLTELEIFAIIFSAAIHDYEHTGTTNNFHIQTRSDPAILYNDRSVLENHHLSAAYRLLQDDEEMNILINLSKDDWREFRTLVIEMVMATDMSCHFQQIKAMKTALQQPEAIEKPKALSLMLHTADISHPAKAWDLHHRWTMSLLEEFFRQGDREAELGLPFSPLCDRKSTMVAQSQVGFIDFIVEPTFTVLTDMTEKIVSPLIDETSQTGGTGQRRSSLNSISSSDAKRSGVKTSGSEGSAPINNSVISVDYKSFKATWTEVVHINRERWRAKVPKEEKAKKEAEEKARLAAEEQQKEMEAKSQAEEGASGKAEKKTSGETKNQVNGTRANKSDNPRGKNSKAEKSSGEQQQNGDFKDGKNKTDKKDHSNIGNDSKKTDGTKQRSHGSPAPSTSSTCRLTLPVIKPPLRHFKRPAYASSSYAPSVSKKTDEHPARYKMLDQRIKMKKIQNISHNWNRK

For `CN1CC(=O)N2[C@H](c3ccc4c(c3)OCO4)c3[nH]c4ccccc4c3C[C@@H]2C1=O` [Compound 5, (6R-trans)-6-(1,3-benzodioxol-5-yl)-2,3,6,7,12,12a-hexahydro-2-methylpyrazino[1′,2′:1,6]pyrido[3,4-b]indole-1,4-dione], the IC50 (PDE1c) was 10 µM, the “Treatment-Emergent Adverse Events (%): Back Pain” value (clinical study subjects; unit dose 2 mg) was 3% and the “Treatment-Emergent Adverse Events (%): Conjunctivitis” value (clinical study subjects; unit dose 2 mg) was 0%. For the same compound, the “Treatment-Emergent Adverse Events (%): Dyspepsia” value (clinical study subjects; unit dose 2 mg) was 3%, the “Treatment-Emergent Adverse Events (%): Eyelid Edema” value (clinical study subjects; unit dose 2 mg) was 0% and the “Treatment-Emergent Adverse Events (%): Flushing” value (clinical study subjects; unit dose 2 mg) was 0%. The “Treatment-Emergent Adverse Events (%): Headache” value (clinical study subjects; unit dose 2 mg) was 12%, the “Treatment-Emergent Adverse Events (%): Myalgia” value (clinical study subjects; unit dose 2 mg) was 0% and the “Treatment-Emergent Adverse Events (%): Rhinitis” value (clinical study subjects; unit dose 2 mg) was 7%. The “Treatment-Emergent Adverse Events (%): Vision Abnormalities” value (clinical study subjects; unit dose 2 mg) was 0%, the “Treatment-Emergent Adverse Events (%): Back Pain” value (clinical study subjects; unit dose 5 mg) was 3% and the “Treatment-Emergent Adverse Events (%): Conjunctivitis” value (clinical study subjects; unit dose 5 mg) was 1%. For the same compound, the “Treatment-Emergent Adverse Events (%): Dyspepsia” value (clinical study subjects; unit dose 5 mg) was 14%, the “Treatment-Emergent Adverse Events (%): Eyelid Edema” value (clinical study subjects; unit dose 5 mg) was 0% and the “Treatment-Emergent Adverse Events (%): Flushing” value (clinical study subjects; unit dose 5 mg) was 0%. For the same compound, the “Treatment-Emergent Adverse Events (%): Headache” value (clinical study subjects; unit dose 5 mg) was 10%, the “Treatment-Emergent Adverse Events (%): Myalgia” value (clinical study subjects; unit dose 5 mg) was 3% and the “Treatment-Emergent Adverse Events (%): Rhinitis” value (clinical study subjects; unit dose 5 mg) was 3%. For the same compound, the “Treatment-Emergent Adverse Events (%): Vision Abnormalities” value (clinical study subjects; unit dose 5 mg) was 0%, the “Treatment-Emergent Adverse Events (%): Back Pain” value (clinical study subjects; unit dose 10 mg) was 15% and the “Treatment-Emergent Adverse Events (%): Conjunctivitis” value (clinical study subjects; unit dose 10 mg) was 1%. The “Treatment-Emergent Adverse Events (%): Dyspepsia” value (clinical study subjects; unit dose 10 mg) was 13%, the “Treatment-Emergent Adverse Events (%): Eyelid Edema” value (clinical study subjects; unit dose 10 mg) was 1% and the “Treatment-Emergent Adverse Events (%): Flushing” value (clinical study subjects; unit dose 10 mg) was <1%. For the same compound, the “Treatment-Emergent Adverse Events (%): Headache” value (clinical study subjects; unit dose 10 mg) was 23%, the “Treatment-Emergent Adverse Events (%): Myalgia” value (clinical study subjects; unit dose 10 mg) was 9% and the “Treatment-Emergent Adverse Events (%): Rhinitis” value (clinical study subjects; unit dose 10 mg) was 4%. The “Treatment-Emergent Adverse Events (%): Vision Abnormalities” value (clinical study subjects; unit dose 10 mg) was 0%, the “Treatment-Emergent Adverse Events (%): Back Pain” value (clinical study subjects; unit dose 25 mg) was 18% and the “Treatment-Emergent Adverse Events (%): Conjunctivitis” value (clinical study subjects; unit dose 25 mg) was 0%. For the same compound, the “Treatment-Emergent Adverse Events (%): Dyspepsia” value (clinical study subjects; unit dose 25 mg) was 19%, the “Treatment-Emergent Adverse Events (%): Eyelid Edema” value (clinical study subjects; unit dose 25 mg) was 1% and the “Treatment-Emergent Adverse Events (%): Flushing” value (clinical study subjects; unit dose 25 mg) was 0%. The “Treatment-Emergent Adverse Events (%): Headache” value (clinical study subjects; unit dose 25 mg) was 29%, the “Treatment-Emergent Adverse Events (%): Myalgia” value (clinical study subjects; unit dose 25 mg) was 16% and the “Treatment-Emergent Adverse Events (%): Rhinitis” value (clinical study subjects; unit dose 25 mg) was 4%. The “Treatment-Emergent Adverse Events (%): Vision Abnormalities” value (clinical study subjects; unit dose 25 mg) was 0%, the “Treatment-Emergent Adverse Events (%): Back Pain” value (clinical study subjects; unit dose 50 mg) was 24% and the “Treatment-Emergent Adverse Events (%): Conjunctivitis” value (clinical study subjects; unit dose 50 mg) was 2%. For the same compound, the “Treatment-Emergent Adverse Events (%): Dyspepsia” value (clinical study subjects; unit dose 50 mg) was 20%, the “Treatment-Emergent Adverse Events (%): Eyelid Edema” value (clinical study subjects; unit dose 50 mg) was 2% and the “Treatment-Emergent Adverse Events (%): Flushing” value (clinical study subjects; unit dose 50 mg) was 3%. For the same compound, the “Treatment-Emergent Adverse Events (%): Headache” value (clinical study subjects; unit dose 50 mg) was 34%, the “Treatment-Emergent Adverse Events (%): Myalgia” value (clinical study subjects; unit dose 50 mg) was 20% and the “Treatment-Emergent Adverse Events (%): Rhinitis” value (clinical study subjects; unit dose 50 mg) was 0%. For the same compound, the “Treatment-Emergent Adverse Events (%): Vision Abnormalities” value (clinical study subjects; unit dose 50 mg) was 0%, the “Treatment-Emergent Adverse Events (%): Back Pain” value (clinical study subjects; unit dose 100 mg) was 22% and the “Treatment-Emergent Adverse Events (%): Conjunctivitis” value (clinical study subjects; unit dose 100 mg) was 5%. The “Treatment-Emergent Adverse Events (%): Dyspepsia” value (clinical study subjects; unit dose 100 mg) was 25%, the “Treatment-Emergent Adverse Events (%): Eyelid Edema” value (clinical study subjects; unit dose 100 mg) was 3% and the “Treatment-Emergent Adverse Events (%): Flushing” value (clinical study subjects; unit dose 100 mg) was 7%. The “Treatment-Emergent Adverse Events (%): Headache” value (clinical study subjects; unit dose 100 mg) was 46%, the “Treatment-Emergent Adverse Events (%): Myalgia” value (clinical study subjects; unit dose 100 mg) was 29% and the “Treatment-Emergent Adverse Events (%): Rhinitis” value (clinical study subjects; unit dose 100 mg) was 2%. For the same compound, the “Treatment-Emergent Adverse Events (%): Vision Abnormalities” value (clinical study subjects; unit dose 100 mg) was 0%, the flushing (clinical study subjects; [2]) was “flushing was essentially eliminated” and the vision abnormalities (clinical study subjects; [2]) was “no vision abnormalities were reported”. The efficacy ([1]; 10 mg dose) was “fully efficacious”, the side effects ([1]; 10 mg dose) was “minimal side effects (no flushing and no reports of blue vision)” and the efficacy ([1]; doses from 5 to 20 mg) was “efficacious”. The flushing ([1]; doses from 5 to 20 mg) was “no flushing”, the vision abnormalities ([1]; doses from 5 to 20 mg) was “no reports of vision abnormalities” and the “erectile function as assessed by all endpoints (IIEF, diaries of sexual attempts, global satisfaction question)” value ([1]; in vivo) was “significantly improved erectile function”. The erectile function ([1]; on demand and daily dose regimens, doses between 1 and 20 mg) was “significantly improved erectile function”.
